Holding throughout (type): biochemical
For test [1], the target named is T1, recombinant rabbit GSK-3β protein (Oryctolagus cuniculus, UniProt G1T8E2).
T1 construct: purchased New England Biolabs
In words: Glycogen Synthase Kinase-3 Assay (33P-ATP phosphorylation of PPI-2). How it is done: Compounds were tested for the ability to inhibit recombinant rabbit GSK-3β protein using the following protocol. The test compound was added to a reaction mixture containing Protein Phosphatase Inhibitor-2 (PPI-2) (Calbiochem) (45 ng), rabbit GSK-3β protein (New England Biolabs) (0.75 units) and ^33P-ATP (1 μCi) in 50 mM Tris-HCl (pH 8.0), 10 mM MgCl2, 0.1% BSA, 1 mM DTT and 100 μM Sodium Vanadate. The mixture was reacted for 90 minutes at 30° C. to allow phosphorylation of the PPI-2 protein and then the protein in the reaction was precipitated using 10% TCA. The precipitated protein was collected on filter plates (MultiScreen-DV/Millipore), which were subsequently washed. Finally, the radioactivity was quantified using a TopCount Scintillation Counter (Packard). […] Staurosporine or Valproate, known inhibitors of GSK-3β, were used as a positive control for screening.

The next test concerns the target PKC-γ (Homo sapiens, UniProt P05129). Briefly: Protein Kinase C Histone-Based Assay. The conditions noted are these: histone III substrate. How it is done: (§1) Compounds were evaluated for PKC isozyme selectivity using histone III as the substrate. PKC isozymes α, β-II or γ were added to a reaction mixture that contained 20 mM HEPES, (pH 7.4), 940 μM CaCl2, 10 mM MgCl2, 1 mM EGTA. 100 μg/mL phosphatidylserine, 20 μg/mL diacylglycerol, 30 μM ATP, […] [^33P]ATP and 200 μg/mL histone III. The reaction was incubated for 10 min at 30° C. Reactions were terminated by TCA precipitation and spotting on Whatman P81 filters. Filters were washed in 75 mM phosphoric acid and the radioactivity quantified by liquid scintillation counting.

The target of the next test is PKC-α (Homo sapiens, UniProt P17252). In words: Protein Kinase C Histone-Based Assay. Conditions: histone III substrate. As to the method: as §1
A further test deals with PKC-βII (Homo sapiens, UniProt P05771). Briefly: Protein Kinase C Histone-Based Assay. Conditions: histone III substrate. As to the method:
as §1

The values that follow come from patent US7488826B2, “Substituted pyrroline kinase inhibitors” (Janssen Pharmaceutica N.V., priority 2003, dated 2009).

T1 sequence (G1T8E2 1-432): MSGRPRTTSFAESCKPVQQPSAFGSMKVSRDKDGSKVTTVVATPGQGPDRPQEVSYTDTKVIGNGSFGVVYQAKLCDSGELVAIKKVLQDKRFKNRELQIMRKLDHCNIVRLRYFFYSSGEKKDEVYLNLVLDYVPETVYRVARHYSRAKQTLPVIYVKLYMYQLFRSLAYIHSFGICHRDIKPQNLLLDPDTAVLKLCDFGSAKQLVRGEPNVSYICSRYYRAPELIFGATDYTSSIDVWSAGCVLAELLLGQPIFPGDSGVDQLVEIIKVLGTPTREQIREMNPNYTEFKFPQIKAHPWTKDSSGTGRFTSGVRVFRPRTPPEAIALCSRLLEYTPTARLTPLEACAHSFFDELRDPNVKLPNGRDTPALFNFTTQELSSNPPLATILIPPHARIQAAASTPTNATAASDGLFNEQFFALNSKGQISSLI
PKC-βII, sequence (P05771 1-673 isoform P05771-2): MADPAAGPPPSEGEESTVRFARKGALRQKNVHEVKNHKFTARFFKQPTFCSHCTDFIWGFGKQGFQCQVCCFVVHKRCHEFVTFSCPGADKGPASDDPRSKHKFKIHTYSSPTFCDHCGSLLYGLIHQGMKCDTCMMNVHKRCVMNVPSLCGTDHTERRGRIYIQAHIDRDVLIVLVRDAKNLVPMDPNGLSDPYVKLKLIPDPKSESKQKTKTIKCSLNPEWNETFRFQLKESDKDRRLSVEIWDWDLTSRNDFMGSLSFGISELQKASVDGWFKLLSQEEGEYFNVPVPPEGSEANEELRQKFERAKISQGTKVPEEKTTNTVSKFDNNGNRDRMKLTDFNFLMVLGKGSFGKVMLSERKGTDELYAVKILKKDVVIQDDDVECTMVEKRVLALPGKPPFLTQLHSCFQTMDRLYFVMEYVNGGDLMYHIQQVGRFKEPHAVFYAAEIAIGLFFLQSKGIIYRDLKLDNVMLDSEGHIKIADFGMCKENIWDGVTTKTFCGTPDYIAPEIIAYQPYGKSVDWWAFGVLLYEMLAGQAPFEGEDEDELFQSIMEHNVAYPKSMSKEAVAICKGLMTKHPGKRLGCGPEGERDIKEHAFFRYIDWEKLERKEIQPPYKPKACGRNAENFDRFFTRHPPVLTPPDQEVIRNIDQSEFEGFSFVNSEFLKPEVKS

`COCCCn1cc(C2=C(c3ccccc3OC)C(=O)NC2=O)c2cnccc21` [Cpd 1, 3-(2-Methoxyphenyl)-4-[1-(3-methoxypropyl)-1H-pyrrolo[3,2-c]pyridin-3-yl]-1H-pyrrole-2,5-dione]: the half-inhibitory concentration (IC50) in test [1] amounted to 1.8 nM. For the same compound, the values for the inhibition at 10 µM against PKC-γ (@10 μM) and at PKC-α (@10 μM) were 25% and 31%, respectively. On PKC-βII, this compound registered an inhibition at 1 µM of 22%.

On to `COCCCn1cc(C2=C(c3ccccc3Cl)C(=O)NC2=O)c2cnccc21` [Cpd 2, 3-(2-Chlorophenyl)-4-[1-(3-methoxypropyl)-1H-pyrrolo[3,2-c]pyridin-3-yl]-1H-pyrrole-2,5-dione], for which the IC50 in test [1] worked out at 20 nM; at PKC-γ, 4210 nM; against PKC-α it was 2510 nM. The compound further registered an inhibition at 1 µM at PKC-βII of 28%.

As usually defined, the IC50 is the concentration needed to halve the response being measured. A word on the inhibition: it is the change of the read-out against control, counted positive when it falls. Read a high inhibition as a strong effect.
